From patent US11872311B2, “Metal bisphosphonate nanoparticles for anti-cancer therapy and imaging and for treating bone disorders” (The University of North Carolina at Chapel Hill, priority 2011, dated 2024)

What was measured:
Type in all cases: cell-based
[1] = test system: NCI-H460 large lung cancer cells; assay: Cancer cell growth inhibition assay, trypan blue exclusion (Ca-Pam particles); settings: Homo sapiens, 48 h, pamidronate concentrations
Excerpt: NCI-H460 large lung cancer cells (American Type Culture Collection (ATCC)# HTB-177) were purchased from the Tissue Culture Facility of Lineberger Comprehensive Cancer Center at the University of North Carolina at Chapel Hill. The cell line was maintained as a suspension in RPMI-1640 growth medium (Cellgro®, Mediatech, Inc., Manassas, Virginia., United States of America) supplemented with 10% fetal bovine serum (Sigma, St. Louis, Missouri., United States of America) and 2% penicillin-streptomycin (Sigma, St. Louis, Missouri., United States of America).
Confluent H460 cells were counted from the culture flask using a hematocytometer. Cells were plated in 6-well plates at a cell density of 5×10^4 cells/well in 3 mL RPMI-1640 complete growth medium. The cells were incubated at 37° C. and 5% CO2 overnight. Pamidronate, and particle dispersions of Ca-Pam, lipid coated Ca-Pam, and AA-lipid coated Ca-Pam (80 μM) in RPMI-1640 media and additional media were added to wells, resulting in pamidronate concentrations (μM) of 0, 5, 10, 20, 40, and 80. Cells were incubated (37° C., 5% CO2) with free pamidronate or particle for 48 h. Viability was determined by the trypan blue exclusion assay.

[2] = test system: ASPC-1; assay: Cytotoxicity assay against ASPC-1 (FIG. 35A); settings: Homo sapiens, ASPC1
Excerpt: (§1) FIGS. 35A and 35B present data from cytotoxicity assays of Mn-Zol@DOPA, PEG-A-Zn-Zol, and AA-PEG-A-Mn-Zol particles against ASPC-1 (FIG. 35A) and MCF-7 cells (FIG. 35B).

[3] = test system: MCF-7 cells; assay: Cytotoxicity assay against MCF-7 cells (FIG. 35B); settings: Homo sapiens, MCF7
Excerpt: as §1

[4] = test system: H460 human lung carcinoma cells; assay: Cell viability assay, trypan blue cell counts (A-Ca-Zol particles); settings: NCI-H460, 48 hrs
Method: Four cell culturing plates were set-up for cell viability assays. In each well, 100,000 H460 human lung carcinoma cells were placed in each well with 3 mL of RPMI media (supplemented with 10% FBS and 2% PenStrep) and were allowed to incubate overnight for cell adhesion at 37° C. at 5% CO2.
20 μM stock solutions of zolendrate, bare particle (i.e., as synthesized A-Ca-Zol), RGD targeted particle and anisamide targeted particle were prepared so that treatment curves of 0 μM, 1 μM, 5 μM, 10 μM, 20 μM and […] were established in RPMI media. After individual treatment, the plates were placed back in the incubator for 48 hrs.
After incubation, media and treatment was removed from each well and cells were washed 2× with 1 mL of PBS. 1 mL of trypsin was added to each well and placed back in the incubator for 3 min. The cells and trypsin were then transferred to centrifuge tubes and centrifuged for 3 min and the cell pellet was then redistributed in 1 mL of media. Cell counts were taken using 20 μL of cells and 20 μL trypan blue on a hemocytometer.

[5] = test system: MCF-7 human breast cancer cells; assay: Cell viability, trypan blue exclusion (A-Mn-Zol particles); settings: MCF7, MCF-7 cells, 48 h, zoledronate concentrations
Excerpt: (§2) NCI-H460 large lung cancer cells (ATCC # HTB-177) and MCF-7 human breast cancer cells (ATCC # HTB-22) were purchased from the Tissue Culture Facility of Lineberger Comprehensive Cancer Center at the University of North Carolina at Chapel Hill. The cell line was maintained as a suspension in RPMI-1640 growth medium (Cellgro®, Mediatech, Inc., Manassas, Virginia., United States of America) supplemented with 10% fetal bovine serum (Sigma, St. Louis, Missouri., United States of America) and 2% penicillin-streptomycin (Sigma, St. Louis, Missouri, United States of America).
Confluent MCF-7 cells were trypsinized (trypsin-EDTA, Sigma, St. Louis, Missouri, United States of America) and cell density was obtained from a hemocytometer. 6-well plates were seeded with 5.0×10^4 cells/well and a total of 3 mL media. The plates were incubated at 37° C. and 5% CO2 overnight. Amounts of zoledronate, liposomes, and particle dispersions in RPMI-1640 medium and additional media (5% phosphate buffered saline, Cellgro®, Mediatech, Inc., Manassas, Virginia., United States of America) were added to wells resulting in zoledronate concentrations of 0, 2.5, 5, 10, 20, and 40 μM. The plates were incubated at 37° C. and 5% CO2 for 48 h and viability was determined via the trypan blue exclusion assay. […]

[6] = test system: human PC-3 prostate adenocarcinoma cells; assay: Cell viability assay in PC-3 cells (A-Ca-Zol particles)
Method: In addition, a cell viability assay was also performed in a similar manner, but using human PC-3 prostate adenocarcinoma cells. Cell viability results for PC-3 cells treated with either zoledronate or as synthesized A-Ca-Zol nanoparticles are provided in FIG. 24. The IC50's are estimated to be 3.1, and 0.8 for zoledronate and as-synthesized A-Ca-Zol, respectively.

[7] = test system: NCI-H460 large lung cancer cells; assay: Cell viability, trypan blue exclusion (Mn-Zol particles); settings: Homo sapiens, 48 h, zoledronate concentrations
Excerpt: as §2
Confluent H460 cells were counted from the culture flask using a hematocytometer. Cells were plated in 6-well plates at a cell density of 5×10^4 cells/well in 3 mL RPMI-1640 complete growth medium. The cells were incubated at 37° C. and 5% CO2 overnight. Zoledronate, bare liposome, and particle dispersions of Mn-Zol and lipid coated Mn-Zol (20 μM) in RPMI-1640 media and additional media were added to wells, resulting in zoledronate concentrations (μM) of 0, 1.0, 2.5, 5, 10, and 20. Cells were incubated (37° C., 5% CO2) with free zoledronate, liposome, or particle for 48 h. Viability was determined by the trypan blue exclusion assay.

| IC50 [1] | IC50 [4] | IC50 [5] | IC50 [6] | IC50 [7] | Compound | IC50 [2] | IC50 [3] |
| --- | --- | --- | --- | --- | --- | --- | --- |
| 65 µM |  |  |  |  | NCCC(O)(P(=O)(O)O)P(=O)(O)O [pamidronate] |  |  |
|  | > 20 µM | 9 µM | 3.1 µM | > 20 µM | O=P(O)(O)C(O)(Cn1ccnc1)P(=O)(O)O [zoledronate] | > 60 µM | > 60 µM |
